In general, melting point refers to the temperature, or range, at which the solid turns liquid.

Structures can show the parent of a compound that is named as a salt.

Regarding `N[C@@H](CSSC[C@H](N)C(=O)N1CCn2nc(-c3ccncc3)cc2C1CCc1ccccc1)C(=O)N1CCn2nc(-c3ccncc3)cc2C1CCc1ccccc1` (mixture of isomers) (as salt: hydrochloride) [Example 14, (2R)-3-({(2R)-2-amino-3-oxo-3-[(4RS)-4-(2-phenylethyl)-2-pyridin-4-yl-6,7-dihydropyrazolo[1,5-a]pyrazin-5(4H)-yl]propyl}dithio)-1-oxo-1-[(4RS)-4-(2-phenylethyl)-2-pyridin-4-yl-6,7-dihydropyrazolo[1,5-a]pyrazin-5(4H)-yl]propan-2-amine hydrochloride], the melting point is 227 °C (dec.). For the molecule `N[C@@H](CSSC[C@H](N)C(=O)N1CCn2nc(-c3ccccc3)cc2C1CCc1ccccc1)C(=O)N1CCn2nc(-c3ccccc3)cc2C1CCc1ccccc1` (mixture of isomers) (as salt: hydrochloride) [Example 13, (2R)-3-({(2R)-2-amino-3-oxo-3-[(4RS)-2-phenyl-4-(2-phenylethyl)-6,7-dihydropyrazolo[1,5-a]pyrazin-5(4H)-yl]propyl}dithio)-1-oxo-1-[(4RS)-2-phenyl-4-(2-phenylethyl)-6,7-dihydropyrazolo[1,5-a]pyrazin-5(4H)-yl]propan-2-amine hydrochloride], the melting point was 208 °C (dec.). The same measure for `N[C@@H](CSSC[C@H](N)C(=O)N1CCn2nc(-c3ccc4c(c3)OCO4)cc2C1CCc1ccccc1)C(=O)N1CCn2nc(-c3ccc4c(c3)OCO4)cc2C1CCc1ccccc1` (mixture of isomers) (as salt: hydrochloride) [Example 16, (2R)-3-({(2R)-2-amino-3-[(4RS)-2-(1,3-benzodioxol-5-yl)-4-(2-phenylethyl)-6,7-dihydropyrazolo[1,5-a]pyrazin-5(4H)-yl]-3-oxopropyl}dithio)-1-[(4RS)-2-(1,3-benzodioxol-5-yl)-4-(2-phenylethyl)-6,7-dihydropyrazolo[1,5-a]pyrazin-5(4H)-yl]-1-oxopropan-2-amine hydrochloride]: 221 °C (dec.); for `N[C@@H](CSSC[C@H](N)C(=O)N1CCn2nc(-c3ccccc3)cc2[C@H]1CC1CCCCC1)C(=O)N1CCn2nc(-c3ccccc3)cc2[C@H]1CC1CCCCC1` (as salt: hydrochloride) [Example 26, (1R)-3-({(2R)-2-amino-3-[(4R)-4-(cyclohexylmethyl)-2-phenyl-6,7-dihydropyrazolo[1,5-a]pyrazin-5(4H)-yl]-3-oxopropyl}dithio)-1-[(4R)-4-(cyclohexylmethyl)-2-phenyl-6,7-dihydropyrazolo[1,5-a]pyrazin-5(4H)-yl]-1-oxopropan-2-amine hydrochloride]: 212 to 217 °C; for `CC(C)(C)OC(=O)N[C@@H](CSSC[C@H](NC(=O)OC(C)(C)C)C(=O)N1CCn2nc(-c3ccncc3)cc2C1CCc1ccccc1)C(=O)N1CCn2nc(-c3ccncc3)cc2C1CCc1ccccc1` (mixture of isomers) [Example 3, tert-butyl {(1R)-1-[({(2R)-2-[(tert-butoxycarbonyl)amino]-3-oxo-3-[(4RS)-4-(2-phenylethyl)-2-pyridin-4-yl-6,7-dihydropyrazolo[1,5-a]pyrazin-5(4H)-yl]propyl}dithio)methyl]-2-oxo-2-[(4RS)-4-(2-phenylethyl)-2-pyridin-4-yl-6,7-dihydropyrazolo[1,5-a]pyrazin-5(4H)-yl]ethyl}carbamate]: 149 to 152 °C. As for `COc1cc(-c2cc3n(n2)CCN(C(=O)[C@H](CSSC[C@H](NC(=O)OC(C)(C)C)C(=O)N2CCn4nc(-c5cc(OC)c(OC)c(OC)c5)cc4C2CCc2ccccc2)NC(=O)OC(C)(C)C)C3CCc2ccccc2)cc(OC)c1OC` (mixture of isomers) [Example 6, tert-butyl {(1R)-1-[({(2R)-2-[(tert-butoxycarbonyl)amino]-3-oxo-3-[(4RS)-4-(2-phenylethyl)-2-(3,4,5-trimethoxyphenyl)-6,7-dihydropyrazolo[1,5-a]pyrazin-5(4H)-yl]propyl}dithio)methyl]-2-oxo-2-[(4RS)-4-(2-phenylethyl)-2-(3,4,5-trimethoxyphenyl)-6,7-dihydropyrazolo[1,5-a]pyrazin-5(4H)-yl]ethyl}carbamate], the figure is 130 to 136 °C; as for `N[C@@H](CSSC[C@H](N)C(=O)N1CCn2nc(-c3cccs3)cc2C1CCc1ccccc1)C(=O)N1CCn2nc(-c3cccs3)cc2C1CCc1ccccc1` (mixture of isomers) (as salt: hydrochloride) [Example 18, (2R)-3-({(2R)-2-amino-3-oxo-3-[(4RS)-4-(2-phenylethyl)-2-(2-thienyl)-6,7-dihydropyrazolo[1,5-a]pyrazin-5(4H)-yl]propyl}dithio)-1-oxo-1-[(4RS)-4-(2-phenylethyl)-2-(2-thienyl)-6,7-dihydropyrazolo[1,5-a]pyrazin-5(4H)-yl]propan-2-amine hydrochloride], 218 °C (dec.); as for `N[C@@H](CSSC[C@H](N)C(=O)N1CCn2nc(-c3ccccn3)cc2C1CCc1ccccc1)C(=O)N1CCn2nc(-c3ccccn3)cc2C1CCc1ccccc1` (mixture of isomers) (as salt: hydrochloride) [Example 32, (2R)-3-({(2R)-2-amino-3-oxo-3-[(4RS)-4-(2-phenylethyl)-2-pyridin-2-yl-6,7-dihydropyrazolo[1,5-a]pyrazin-5(4H)-yl]propyl}dithio)-1-oxo-1-[(4RS)-4-(2-phenylethyl)-2-pyridin-2-yl-6,7-dihydropyrazolo[1,5-a]pyrazin-5(4H)-yl]propan-2-amine hydrochloride], 232 to 234 °C (dec.). `N[C@@H](CSSC[C@H](N)C(=O)N1CCCn2nc(-c3ccccc3)cc2C1CC1CCCCC1)C(=O)N1CCCn2nc(-c3ccccc3)cc2C1CC1CCCCC1` (mixture of isomers) (as salt: hydrochloride) [Example 28, {(1R)-1-[({(2R)-2-amino-3-[(4RS)-4-(cyclohexylmethyl)-2-phenyl-7,8-dihydro-4H-pyrazolo[1,5-a][1,4]diazepin-5(6H)-yl]-3-oxopropyl}dithio)methyl]-2-[(4RS)-4-(cyclohexylmethyl)-2-phenyl-7,8-dihydro-4H-pyrazolo[1,5-a][1,4]diazepin-5(6H)-yl]-2-oxoethyl}amine hydrochloride]: the melting point lay within 198 to 208 °C.

As to `N[C@@H](CSSC[C@H](N)C(=O)N1CCn2nc(-c3ccccc3)cc2C1CC1CCCCC1)C(=O)N1CCn2nc(-c3ccccc3)cc2C1CC1CCCCC1` (mixture of isomers) (as salt: hydrochloride) [Example 12, (2R)-3-({(2R)-2-amino-3-[(4RS)-4-(cyclohexylmethyl)-2-phenyl-6,7-dihydropyrazolo[1,5-a]pyrazin-5(4H)-yl]-3-oxopropyl}dithio)-1-[(4RS)-4-(cyclohexylmethyl)-2-phenyl-6,7-dihydropyrazolo[1,5-a]pyrazin-5(4H)-yl]-1-oxopropan-2-amine hydrochloride], the melting point is 218 °C (dec.). In the case of `CC(C)(C)OC(=O)N[C@@H](CSSC[C@H](NC(=O)OC(C)(C)C)C(=O)N1CCn2nc(-c3ccccc3)cc2C1CC1CCCCC1)C(=O)N1CCn2nc(-c3ccccc3)cc2C1CC1CCCCC1` (mixture of isomers) [Example 1, tert-butyl {(1R)-1-[({(2R)-2-[(tert-butoxycarbonyl)amino]-3-[(4RS)-4-(cyclohexylmethyl)-2-phenyl-6,7-dihydropyrazolo[1,5-a]pyrazin-5(4H)-yl]-3-oxopropyl}dithio)methyl]-2-[(4RS)-4-(cyclohexylmethyl)-2-phenyl-6,7-dihydropyrazolo[1,5-a]pyrazin-5(4H)-yl]-2-oxoethyl}carbamate], the melting point lay in the range of 129 to 132 °C. Molecule `CC(C)(C)OC(=O)N[C@@H](CSSC[C@H](NC(=O)OC(C)(C)C)C(=O)N1CCn2nc(-c3ccccc3)cc2C1CCc1ccccc1)C(=O)N1CCn2nc(-c3ccccc3)cc2C1CCc1ccccc1` (mixture of isomers) [Example 2, tert-butyl {(1R)-1-[({(2R)-2-[(tert-butoxycarbonyl)amino]-3-oxo-3-[(4RS)-2-phenyl-4-(2-phenylethyl)-6,7-dihydropyrazolo[1,5-a]pyrazin-5(4H)-yl]propyl}dithio)methyl]-2-oxo-2-[(4RS)-2-phenyl-4-(2-phenylethyl)-6,7-dihydropyrazolo[1,5-a]pyrazin-5(4H)-yl]ethyl}carbamate] displayed a melting point of 123 to 127 °C. Regarding `N[C@@H](CSSC[C@H](N)C(=O)N1CCn2nc(-c3cccnc3)cc2C1CCc1ccccc1)C(=O)N1CCn2nc(-c3cccnc3)cc2C1CCc1ccccc1` (mixture of isomers) (as salt: hydrochloride) [Example 15, (2R)-3-({(2R)-2-amino-3-oxo-3-[(4RS)-4-(2-phenylethyl)-2-pyridin-3-yl-6,7-dihydropyrazolo[1,5-a]pyrazin-5(4H)-yl]propyl}dithio)-1-oxo-1-[(4RS)-4-(2-phenylethyl)-2-pyridin-3-yl-6,7-dihydropyrazolo[1,5-a]pyrazin-5(4H)-yl]propan-2-amine hydrochloride], the melting point was 223 °C (dec.). `N[C@@H](CSSC[C@H](N)C(=O)N1CCn2nc(-c3ccccc3)cc2[C@@H]1CC1CCCCC1)C(=O)N1CCn2nc(-c3ccccc3)cc2[C@@H]1CC1CCCCC1` (as salt: hydrochloride) [Example 24, (2R)-3-({(2R)-2-amino-3-[(4S)-4-(cyclohexylmethyl)-2-phenyl-6,7-dihydropyrazolo[1,5-a]pyrazin-5(4H)-yl]-3-oxopropyl}dithio)-1-[(4S)-4-(cyclohexylmethyl)-2-phenyl-6,7-dihydropyrazolo[1,5-a]pyrazin-5(4H)-yl]-1-oxopropan-2-amine hydrochloride] registered a melting point of 214 to 219 °C. `CC(C)(C)OC(=O)N[C@@H](CSSC[C@H](NC(=O)OC(C)(C)C)C(=O)N1CCn2nc(-c3ccccc3)cc2[C@@H]1CC1CCCCC1)C(=O)N1CCn2nc(-c3ccccc3)cc2[C@@H]1CC1CCCCC1` [Example 23, tert-butyl {(1R)-1-[({(2R)-2-[(tert-butoxycarbonyl)amino]-3-[(4S)-4-(cyclohexylmethyl)-2-phenyl-6,7-dihydropyrazolo[1,5-a]pyrazin-5(4H)-yl]-3-oxopropyl}dithio)methyl]-2-[(4S)-4-(cyclohexylmethyl)-2-phenyl-6,7-dihydropyrazolo[1,5-a]pyrazin-5(4H)-yl]-2-oxoethyl}carbamate] had a melting point of 106 to 108 °C.

The record behind these values is patent US20100222332A1, “PYRAZOLO-PYRAZINES DERIVATIVES USED AS G PROTEIN INHIBITORS” (Ipsen Pharma S.A.S., priority 2007, published 2010).
